Assay results from patent US5621007A, “Method for regulation of transmembrane chloride conductance” (Bristol-Myers Squibb Company, priority 1995, dated 1997).
Entries after “also recorded” stand apart in the source; their conditions may differ. Read-outs that look alike come from different tables or passages of the source.

Assays:
mock transfected cells [1] = experiment: Whole-cell patch clamp, mock transfected Vero cells; type: cell-based, monkey
ΔF508 CFTR [2] = experiment: Whole-cell patch clamp, Vero cells expressing ΔF508 CFTR; type: cell-based
wild-type CFTR [3] = target: T1, wild-type CFTR (Homo sapiens, UniProt P13569); experiment: Two-electrode voltage clamp, Xenopus oocytes expressing wild-type CFTR; type: cell-based
T1 sequence (P13569 whole entry): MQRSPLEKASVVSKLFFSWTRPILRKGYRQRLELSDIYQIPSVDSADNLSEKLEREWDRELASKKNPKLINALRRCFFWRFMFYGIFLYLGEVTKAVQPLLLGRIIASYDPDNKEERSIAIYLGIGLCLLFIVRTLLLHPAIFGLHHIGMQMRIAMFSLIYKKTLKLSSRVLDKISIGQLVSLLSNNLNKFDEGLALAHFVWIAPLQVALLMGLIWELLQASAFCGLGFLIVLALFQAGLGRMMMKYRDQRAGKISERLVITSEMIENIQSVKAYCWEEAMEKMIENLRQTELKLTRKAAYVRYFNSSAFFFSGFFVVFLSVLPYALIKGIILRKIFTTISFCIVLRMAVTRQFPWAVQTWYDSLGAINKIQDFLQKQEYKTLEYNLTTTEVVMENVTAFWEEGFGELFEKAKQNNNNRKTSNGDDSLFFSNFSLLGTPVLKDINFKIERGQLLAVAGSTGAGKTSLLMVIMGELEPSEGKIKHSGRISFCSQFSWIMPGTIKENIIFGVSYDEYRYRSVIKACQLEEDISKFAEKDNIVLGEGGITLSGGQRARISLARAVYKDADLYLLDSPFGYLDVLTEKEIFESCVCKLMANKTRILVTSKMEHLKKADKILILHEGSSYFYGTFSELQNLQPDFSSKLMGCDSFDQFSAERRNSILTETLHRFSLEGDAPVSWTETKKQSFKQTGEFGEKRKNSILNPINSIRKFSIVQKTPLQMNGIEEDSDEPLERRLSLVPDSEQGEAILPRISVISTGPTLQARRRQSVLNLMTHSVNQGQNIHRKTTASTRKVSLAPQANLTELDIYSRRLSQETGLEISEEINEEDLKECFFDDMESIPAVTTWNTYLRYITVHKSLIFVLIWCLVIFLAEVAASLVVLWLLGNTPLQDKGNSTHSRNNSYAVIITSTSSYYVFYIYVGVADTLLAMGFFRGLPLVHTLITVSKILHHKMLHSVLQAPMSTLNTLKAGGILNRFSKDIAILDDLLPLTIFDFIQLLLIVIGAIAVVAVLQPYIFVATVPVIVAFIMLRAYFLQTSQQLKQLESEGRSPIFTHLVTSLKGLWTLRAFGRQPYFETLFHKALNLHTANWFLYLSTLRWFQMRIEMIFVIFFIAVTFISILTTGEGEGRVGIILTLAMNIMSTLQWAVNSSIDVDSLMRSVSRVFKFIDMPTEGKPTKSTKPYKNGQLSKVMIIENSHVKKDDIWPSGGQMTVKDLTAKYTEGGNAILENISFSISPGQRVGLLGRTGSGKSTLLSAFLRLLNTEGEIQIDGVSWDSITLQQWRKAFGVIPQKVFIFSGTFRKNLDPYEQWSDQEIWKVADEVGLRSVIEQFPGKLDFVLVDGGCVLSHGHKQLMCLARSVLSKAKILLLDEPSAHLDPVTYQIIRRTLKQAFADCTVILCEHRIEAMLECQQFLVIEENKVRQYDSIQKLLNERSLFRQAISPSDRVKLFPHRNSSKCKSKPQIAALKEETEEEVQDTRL

wild-type CFTR [4] = target: T1, wild-type CFTR; experiment: 125I efflux from Vero cells expressing wild-type CFTR; type: cell-based
ΔF508 CFTR [5] = experiment: Two-electrode voltage clamp, Xenopus oocytes expressing ΔF508 CFTR; type: cell-based
[6] = test system: uninjected or H2 O-injected oocytes; experiment: Two-electrode voltage clamp, uninjected or H2O-injected oocytes (control); type: cell-based, Xenopus laevis; details: NS004, uninjected or H2O-injected oocytes
Method: Oocytes were surgically removed from Xenopus laevis anesthetized with 0.12% 3-aminobenzoic acid ethyl ester (Tricaine). Oocytes were first rinsed with Ca^2+ -free OR2 medium (82.5 mM NaCl, 1 mM KCl, 1 mM MgCl2, 5 mM HEPES, pH 7.5 with NaOH) followed by incubation in collagenase (1.5 mg/ml prepared in Ca^2+ -free OR2 medium) for 4 hours at room temperature. After enzyme treatment, cells were rinsed 8× with OR2 medium and then rinsed again 8× with ND96 medium (90 mM NaCl, 1 mM KCl, 1 mM CaCl2, 1 mM MgCl2, 5 mM HEPES, pH 7.5 with NaOH). Oocytes were stored overnight at 17° C. Late stage V and early stage VI cells that were visualized to be fully defolliculated to the vitelline envelope were selected for microinjection.
Electrophysiological evaluation of the effects of putative CFTR openers were assessed in oocytes expressing wild-type and ΔF508 CFTR constructs using standard two-electrode voltage clamp techniques. Generally, a family of currents was generated under control conditions (incubated in Modified Barth's Solution, MBS, a typical physiological saline medium, in the absence of drugs), with no current or small currents generated under drug-free conditions. […] Data were collected and analyzed using a computer equipped with an A/D interface and appropriate acquisition and analysis software.

[7] = test system: ΔF508 mutant CFTR Cl- channels; type: cell-based
[8] = test system: wild-type CFTR Cl- channels; experiment: Outside-out single channel patch clamp, Vero cells expressing wild-type CFTR; type: cell-based; details: sub-micromolar to micromolar NS004, outside-out excised patches
mock transfected cells [9] = test system: mock transfected cells
wild-type CFTR [10] = target: T1, wild-type CFTR; experiment: Whole-cell patch clamp, Vero cells expressing wild-type CFTR; type: cell-based
ΔF508 CFTR [11] = experiment: 125I efflux from Vero cells expressing ΔF508 CFTR; type: cell-based
[12] = test system: Control cells (not expressing CFTR constructs); experiment: Outside-out patch clamp, control Vero cells not expressing CFTR constructs; type: cell-based, monkey
Method: Subsequently, various concentrations of NS004 were tested for direct effects on ^125 I efflux in cells expressing wild-type and ΔF508 CFTR constructs, the ability of NS004 to affect the anion efflux stimulated by cAMP (produced by application of Forskolin) was also tested. In addition, both whole-cell and single-channel (outside-out) patch clamp configurations were employed to directly determine the effects of cAMP (produced by addition of Forskolin), NS004, and the combination of cAMP and NS004 on whole-cell and single channel Cl^- currents in infected Vero cells under nominally sodium and potassium-free conditions. In all cases data were collected and analyzed by computer.

chloride channels = details: cited from earlier work
[13] = NS004 alone at the flux-experiment concentrations, Vero cells

With `O=c1[nH]c2cc(C(F)(F)F)ccc2n1-c1cc(Cl)ccc1O` [NS004, 5-trifluoromethyl-1-(5-chloro-2-hydroxyphenyl)-1,3-dihydro-2H-benzimidazol-2-one] the “effect on whole cell Cl- current” value (mock transfected cells [1]) was “no effects”, the “whole cell inward and outward Cl- current” value (ΔF508 CFTR [2]; [13]) was “large to moderate increases; also recorded: smaller direct increase in whole cell Cl^- current” and the “maximal stimulation of Cl- current by cAMP” value (ΔF508 CFTR [2]; cAMP plus NS004, Vero cells) was “potently potentiated the maximal stimulation of Cl^- current by cAMP; also recorded: profound potentiation of cAMP stimulation of Cl^- current”. The “response time to peak of cAMP-stimulated Cl- current” value (ΔF508 CFTR [2]; cAMP plus NS004, Vero cells) was “greatly enhanced the response time to peak”, the “chloride current of the cAMP-stimulated channel” value (wild-type CFTR [3]; NS004 added to cAMP-stimulated wild-type CFTR, oocytes) was “only a marginal enhancement of chloride current; also recorded: only a small potentiation of cAMP-stimulated current” and the “reversibility of the increase in Cl- current” value (wild-type CFTR [3]; NS004 alone, Xenopus oocytes, wild-type CFTR) was “rapidly reversible; also recorded: reversibly open”. For the same compound, the Cl- current (wild-type CFTR [3]; NS004 applied alone, unstimulated wild-type CFTR, Xenopus oocytes) was “large increase in Cl^- current; also recorded: great efficacy; also recorded: significant increase in the Cl^- current”, the “potency (concentration range) for opening unstimulated wild-type CFTR” value (wild-type CFTR [3]; Xenopus oocytes) was “sub-micromolar to micromolar” and the “125I efflux relative to control” value (wild-type CFTR [4]; NS004 20 μM alone, Vero cells expressing CFTR (FIG. 2)) was “increased relative to control”. For the same compound, the “125I-flux over control values” (wild-type CFTR [4]; NS004 alone, 0.1-20 micromolar concentration range, Vero cells, wild-type CFTR) was “increased modestly over control values; also recorded: only modest direct increases in ^125 I efflux”, the total anion flux (wild-type CFTR [4]; both cAMP and NS004, Vero cells, wild-type CFTR) was “did not significantly increase total anion flux” and the chloride current (ΔF508 CFTR [5]; NS004 applied alone, oocytes expressing ΔF508 CFTR) was “only a small enhancement of chloride current; also recorded: smaller direct increase in whole cell Cl^- current”. The “level of cAMP stimulation of channel activity (Cl- current)” value (ΔF508 CFTR [5]; NS004 simultaneously applied with cAMP and related agents, oocytes expressing ΔF508) was “greatly exacerbated the level of cAMP stimulation of channel activity; also recorded: profound potentiation of cAMP stimulation of Cl^- current”, the “time course of cAMP-stimulated chloride current increase” value (ΔF508 CFTR [5]; both cAMP and NS004 present, oocytes expressing ΔF508) was “greatly reduced (response time enhanced)” and the “increase in Cl- current” value [6] was “never seen”. For the same compound, the “opening / open probability of single Cl- channels” value [7] was “rapid and reversible direct increase in the opening of these channels; also recorded: potently and directly opened Cl^- channels; also recorded: greatly increased the open probability”, the “opening / open probability of single Cl- channels” value [8] was “potently and directly opened Cl^- channels; also recorded: greatly increased the open probability” and the “response on 125I efflux” value (mock transfected cells [9]) was “no response”. The “whole cell inward and outward Cl- current” value (wild-type CFTR [10]; [13]) was “large to moderate increases; also recorded: significant increase in the Cl^- current”, the “whole cell Cl- current relative to cAMP alone” value (wild-type CFTR [10]; combination of cAMP stimulation and NS004, Vero cells) was “only marginal increases in current; also recorded: only a small potentiation of cAMP-stimulated current” and the “time course of the increase in anion flux produced by cAMP” value (ΔF508 CFTR [11]; cAMP plus NS004, Vero cells, ΔF508 CFTR) was “reduced the slow time course”. The “levels of 125I efflux attained” value (ΔF508 CFTR [11]; co-administration of cAMP and NS004, ΔF508 CFTR, compared with cAMP in wild-type CFTR cells) was “comparable to the efflux stimulated by cAMP in cells expressing wild-type CFTR”, the “amplitude of the increase in 125I efflux produced by cAMP” value (ΔF508 CFTR [11]; coapplication of cAMP (Forskolin, 5 μM in FIG. 2) and NS004, Vero cells, ΔF508 CFTR) was “greatly potentiated; also recorded: greatly enhanced the amplitude; also recorded: robust potentiation of ^125 I efflux” and the 125I-flux (ΔF508 CFTR [11]; direct application of NS004 alone, Vero cells, ΔF508 CFTR) was “only marginally effected; also recorded: only modest direct increases in ^125 I efflux”. The “channel response to drug application” value [12] was “did not respond to drug application”.

In the case of `C1CCN2C[C@@H]3C[C@@H](CN4CCCC[C@@H]34)[C@H]2C1` [sparteine, dodecahydro-7,14-methano-2H,6H-di-pyrido[1,2-a;1',2'-e][1,5]diazocine], the “effect on chloride channels” value (chloride channels; higher doses) is listed as “blocking chloride channels” and the “effect on chloride channels” value (chloride channels; low doses) is listed as “activating chloride channels”.
